Measured values: US7323485B2, “4-(substituted cycloalkylmethyl) imidazole-2-thiones, 4-(substituted cycloalkenylmethyl) imidazole-2-thiones, 4-(substituted cycloalkylmethyl) imidazol-2-ones and 4-(substituted cycloalkenylmethyl) imidazol-2-ones and related compounds” (Allergan, Inc., priority 2002, dated 2008)

Assays:
[1] = system: rats with ligated L5 and L6 spinal nerves; test: Chung model of neuropathic pain (tactile allodynia, von Frey hairs); assay type: in vivo; conditions: Rattus norvegicus, ip, 0.5 h, 30 min following drug administration, read-out: % Pain Reversal ± SEM
Description: A model in accordance with Kim and Chung 1992, Pain […], pp 355-363 (Chung model), for chronic pain (in particular peripheral neuropathy) involves the surgical ligation of the L5 (and optionally the L6) spinal nerves on one side in experimental animals. Rats recovering from the surgery gain weight and display a level of general activity similar to that of normal rats. However, these rats develop abnormalities of the foot, wherein the hindpaw is moderately everted and the toes are held together. More importantly, the hindpaw on the side affected by the surgery appears to become sensitive to pain from low-threshold mechanical stimuli, such as that producing a faint sensation of touch in a human, within about 1 week following surgery. This sensitivity to normally non-painful touch is called “tactile allodynia” and lasts for at least two months. The response includes lifting the affected hindpaw to escape from the stimulus, licking the paw and holding it in the air for many seconds. None of these responses is normally seen in the control group.
Rats are anesthetized before surgery. The surgical site is shaved and prepared either with betadine or Novacaine. Incision is made from the thoracic vertebra Xlll down toward the sacrum. Muscle tissue is separated from the spinal vertebra (left side) at the L4-S2 levels. The L6 vertebra is located and the transverse process is carefully removed with a small rongeur to expose the L4-L6 spinal nerves. The L5 and L6 spinal nerves are isolated and tightly ligated with 6-0 silk thread. The same procedure is done on the right side as a control, except no ligation of the spinal nerves is performed.
A complete hemostasis is confirmed, then the wounds are sutured. A small amount of antibiotic ointment is applied to the incised area, and the rat is transferred to the recovery plastic cage under a regulated heat-temperature lamp. On the day of the experiment, at least seven days after the surgery, typically six rats per test group are administered the test drugs by intraperitoneal (i.p.) injection or oral gavage. For i.p. injection, the compounds are formulated in approximately 10 to 50% DMSO and given in a volume of 1 ml/kg body weight.
Tactile allodynia is measured prior to and 30 minutes after drug administration using von Frey hairs that are a series of fine hairs with incremental differences in stiffness. Rats are placed in a plastic cage with a wire mesh bottom and allowed to acclimate for approximately 30 minutes. The von Frey hairs are applied perpendicularly through the mesh to the mid-plantar region of the rats' hindpaw with sufficient force to cause slight buckling and held for 6-8 seconds. The applied force has been calculated to range from 0.41 to 15.1 grams. If the paw is sharply withdrawn, it is considered a positive response. A normal animal will not respond to stimuli in this range, but a surgically ligated paw will be withdrawn in response to a 1-2 gram hair. The 50% paw withdrawal threshold is determined using the method of Dixon, W. J., Ann. Rev. Pharmacol. Toxicol. 20:441-462 (1980). The post-drug threshold is compared to the pre-drug threshold and the percent reversal of tactile sensitivity is calculated based on a normal threshold of 15.1 grams. The results are expressed in percent (%) MPE, where the MPE value reflects the percentage reversal of pain threshold to that of a normal animal (100%). Table 3 below indicates results of this test with Compounds 1, 7 and 29 of the invention, administered i.p. and in oral doses.

[2] = target: T1, alpha2B adrenergic receptors (Homo sapiens, UniProt P18089); test: Receptor Selection and Amplification Technology (RSAT) assay, alpha2B; assay type: cell-based; conditions: for EC50: NA = not active at concentrations less than 10 micromolar, read-out: Alpha 2B EC50; for Alpha 2B intrinsic activity: fraction of maximal effect of standard full agonist brimonidine (UK14304)
T1 construct: expressed in transfected cells; host or cells: NIH-3T3
T1 sequence (P18089 1-450): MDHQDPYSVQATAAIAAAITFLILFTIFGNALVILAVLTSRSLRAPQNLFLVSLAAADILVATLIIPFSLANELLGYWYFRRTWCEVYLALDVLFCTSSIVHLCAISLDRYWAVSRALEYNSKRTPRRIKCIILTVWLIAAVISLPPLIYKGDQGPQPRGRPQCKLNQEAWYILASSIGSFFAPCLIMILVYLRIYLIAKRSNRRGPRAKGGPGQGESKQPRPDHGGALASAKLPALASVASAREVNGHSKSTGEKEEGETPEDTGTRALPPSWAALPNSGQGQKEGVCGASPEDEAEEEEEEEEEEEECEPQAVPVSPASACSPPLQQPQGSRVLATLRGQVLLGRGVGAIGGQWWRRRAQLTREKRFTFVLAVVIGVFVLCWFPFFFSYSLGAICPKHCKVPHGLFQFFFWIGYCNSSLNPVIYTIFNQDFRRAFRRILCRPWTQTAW
Description: (§1) The imidazole-2-thione compounds of the invention are agonists of alpha2 adrenergic receptors, particularly they tend to be specific or selective agonists of alpha2B and/or to a lesser extent alpha2C adrenergic receptors, in preference over alpha2A adrenergic receptors. […] Al., 1995, Pharmacol. Toxicol. 76, pp. 308-311 (incorporated herein by reference) and is also described below. Another reference pertinent to this assay is Conklin et al. (1993) Nature 363:274-6, also incorporated herein by reference.
(§2) Receptor Selection and Amplification Technology (RSAT) Assay
(§3) The RSAT assay measures a receptor-mediated loss of contact inhibition that results in selective proliferation of receptor-containing cells in a mixed population of confluent cells. The increase in cell number is assessed with an appropriate transfected marker gene such as β-galactosidase, the activity of which can be easily measured in a 96-well format. Receptors that activate the G protein, Gq, elicit this response. Alpha2 receptors, which normally couple to Gi, activate the RSAT response when coexpressed with a hybrid Gq protein that has a Gi receptor recognition domain, called Gq/i5.
(§4) NIH-3T3 cells are plated at a density of 2×10^6 cells in 15 cm dishes and maintained in Dulbecco's modified Eagle's medium supplemented with 10% calf serum. One day later, cells are cotransfected by calcium phosphate precipitation with mammalian expression plasmids encoding p-SV-β-galactosidase (5-10 μg), receptor (1-2 μg) and G protein (1-2 μg). 40 μg salmon sperm DNA may also be included in the transfection mixture. Fresh media is added on the following day and 1-2 days later, cells are harvested and frozen in 50 assay aliquots. Cells are thawed and 100 μl added to 100 μl aliquots of various concentrations of drugs in triplicate in 96-well dishes. Incubations continue 72-96 hr at 37 EC. After washing with phosphate-buffered saline, β-galactosidase enzyme activity is determined by adding 200 μl of the chromogenic substrate (consisting of 3.5 mM o-nitrophenyl-β-D-galactopyranoside and 0.5% nonidet P-40 in phosphate buffered saline), incubating overnight at 30 EC and measuring optical density at 420 nm. The absorbance is a measure of enzyme activity, which depends on cell number and reflects a receptor-mediated cell proliferation. The EC50 and maximal effect of each drug at each alpha2 receptor is determined. The efficacy or intrinsic activity is calculated as a ratio of the maximal effect of the drug to the maximal effect of a standard full agonist for each receptor subtype. Brimonidine, also called UK14304, the chemical structure of which is shown below, is used as the standard agonist for the alpha2A, alpha2B and alpha2C receptors.
(§5) The results of the RSAT assay with several exemplary compounds of the invention are disclosed in Table 1 above together with the chemical formulas of these examplary compounds. […] NA stands for “not active” at concentrations less than 10 micromolar. As is known EC50 is the concentration at which half of a given compound's maximal activity is observed.

[3] = target: T2, alpha2C adrenergic receptors (Homo sapiens, UniProt P18825); test: Receptor Selection and Amplification Technology (RSAT) assay, alpha2C; assay type: cell-based; conditions: for EC50: NA = not active at concentrations less than 10 micromolar, read-out: Alpha 2C EC50; for Alpha 2C intrinsic activity: fraction of maximal effect of standard full agonist brimonidine (UK14304)
T2 construct: expressed in transfected cells; host or cells: NIH-3T3
T2 sequence (P18825 1-462): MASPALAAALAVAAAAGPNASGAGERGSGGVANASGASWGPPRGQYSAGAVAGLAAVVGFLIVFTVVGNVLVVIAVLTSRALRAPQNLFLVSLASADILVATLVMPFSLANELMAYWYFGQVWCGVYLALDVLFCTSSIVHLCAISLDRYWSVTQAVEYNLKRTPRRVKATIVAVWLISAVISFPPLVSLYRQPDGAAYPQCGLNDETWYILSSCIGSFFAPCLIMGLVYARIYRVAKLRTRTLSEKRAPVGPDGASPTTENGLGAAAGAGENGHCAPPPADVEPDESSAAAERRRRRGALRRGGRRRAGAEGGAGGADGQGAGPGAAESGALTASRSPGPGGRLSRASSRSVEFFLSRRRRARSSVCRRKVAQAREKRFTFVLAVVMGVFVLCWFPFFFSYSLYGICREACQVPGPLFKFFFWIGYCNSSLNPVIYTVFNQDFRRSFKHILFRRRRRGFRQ
Description: as §1, §2, §3, §4, §5

Row | EC50 [2] | Alpha 2B intrinsic activity [2] | EC50 [3] | Alpha 2C intrinsic activity [3] | SMILES | inhibition in vivo at 0.01 mg/kg ([1]; 10 μg/kg i.p.) | inhibition in vivo at 0.03 mg/kg ([1]; 30 μg/kg i.p.) | inhibition in vivo at 0.1 mg/kg ([1]; 100 μg/kg i.p.)
1 |  |  |  |  | S=c1[nH]cc(CC2CCc3sccc3C2)[nH]1 (stereo not shown) [Compound 29, 4-(4,5,6,7-tetrahydro-benzo[b]thiophen-5-ylmethyl)-1,3-dihydro-imidazole-2-thione] | 17 ± 3% | 61 ± 11% | 14 ± 2%
2 | 10 nM | 0.91 | 182 nM | 0.57 | S=c1[nH]cc(CC2CCc3ccccc32)[nH]1 (stereo not shown) [drawing 16] |  |  | 
3 | 1100 nM | 0.69 | 2760 nM | 0.75 | S=c1[nH]cc(CC2CCC=C2c2ccc(Cl)s2)[nH]1 (stereo not shown) |  |  | 
4 | 19 nM | 0.92 | 349 nM | 0.69 | Cc1ccc2c(c1)C(Cc1c[nH]c(=S)[nH]1)CC2 (stereo not shown) |  |  | 
5 | 1600 nM | 0.59 | 569 nM | 0.68 | Fc1cc(F)cc(C2=CCC[C@@H]2Cc2c[nH]c(=S)[nH]2)c1 |  |  | 
6 | 29 nM | 0.96 | 66 nM | 0.47 | Cc1cccc2c1C(=O)C(Cc1c[nH]c(=S)[nH]1)CC2 (stereo not shown) |  |  | 
7 | 3 nM | 0.99 | 13 nM | 0.62 | Cc1cccc2c1CC(c1c[nH]c(=S)[nH]1)C2 (stereo not shown) |  |  | 
8 | 7 nM | 1.27 | 92 nM | 0.86 | Cc1ccc(C)c2c1CC(c1c[nH]c(=S)[nH]1)C2 |  |  | 
9 | 85 nM | 1.07 | 677 nM | 1.13 | CC1=CCCCC1Cc1c[nH]c(=S)[nH]1 (stereo not shown) |  |  | 
10 | 87 nM | 0.73 | 168 nM | 0.59 | S=c1[nH]cc(CC2CCc3c(Br)cccc32)[nH]1 (stereo not shown) |  |  | 
11 | 21 nM |  | 92 nM |  | CC1=C(c2ccc([N+](=O)[O-])cc2)C(Cc2c[nH]c(=S)[nH]2)CC1 (stereo not shown) |  |  | 
12 | 28 nM | 0.9 | 116 nM | 0.55 | S=c1[nH]cc(CC2CCC=C2Cl)[nH]1 (stereo not shown) |  |  | 
13 | 34 nM | 1.01 | 42 nM | 0.63 | Fc1ccc2c(c1)C(Cc1c[nH]c(=S)[nH]1)CC2 (stereo not shown) |  |  | 
14 | 219 nM | 0.42 | 290 nM | 0.62 | Fc1ccc(C2=CCCC2Cc2c[nH]c(=S)[nH]2)c(F)c1 (stereo not shown) |  |  | 
15 | 665 nM | 1.12 | > 2000 nM | 0.70 | S=c1[nH]cc(CC2C=CCCC2)[nH]1 (stereo not shown) |  |  | 
16 | 103 nM | 0.97 | 40 nM | 0.52 | CCC1=C(c2ccc(F)cc2)C(Cc2c[nH]c(=S)[nH]2)CC1 (stereo not shown) |  |  | 
17 | 603 nM | 0.98 | 57 nM | 0.5 | CCCC1=C(c2ccc(F)cc2)C(Cc2c[nH]c(=S)[nH]2)CC1 (stereo not shown) |  |  | 
18 | 24.5 nM | 0.97 | 630 nM | 0.61 | S=c1[nH]cc(C[C@@H]2CCc3ccccc32)[nH]1 |  |  | 
19 | 750 nM | 0.49 | > 2000 nM | 0.32 | CCC1=CC(Cc2c[nH]c(=S)[nH]2)CC1 (stereo not shown) |  |  | 
20 | 236 nM | 1.07 | 2820 nM | 0.46 | S=c1[nH]cc(CC2CCCc3cccnc32)[nH]1 (stereo not shown) |  |  | 
21 | 28 nM | 0.87 | 321 nM | 0.38 | S=c1[nH]cc(C2Cc3ccc(Br)cc3C2)[nH]1 (stereo not shown) |  |  | 
22 | 158 nM | 0.85 |  | 0.62 | S=c1[nH]cc(CC2CCc3cc(Br)ccc32)[nH]1 (stereo not shown) |  |  | 
23 | 30 nM | 0.94 | 139 nM | 1.0 | COc1ccc2c(c1)C(Cc1c[nH]c(=S)[nH]1)CC2 (stereo not shown) |  |  | 
